The results in this text go back to patent publication US20090062401A1, “DECALINE-DERIVED COMPOUNDS AS […] ACTIVE AGENTS” (UNIVERSITAT DORTMUND, priority 2004, published 2009).

Each structure is given as a SMILES string. Read-outs that look alike come from different tables or passages of the source.

One assay has as its target VHR (Homo sapiens, UniProt P51452). Nature of the assay: VHR phosphatase inhibition, general phosphatase assay using para-nitrophenylphosphate. It counts as biochemical. The settings on record: read-out: IC50 Target VHR. The source says: (§1) Assays protocols for the other enzymes mentioned herein (MtPTPA, PP1, VHR, PTP1B) are disclosed in Schweizer R A S, Atanasov, G A, Frey B M, and Odermatt A, Mol. Cell. Endocrinol. 2003, 212, 41-49 and Barratte, B., Meijer L., Galaktionov K. & Beach D, Anticancer Res. 1992, 12, 873-880. For determination of the phosphatase activity, a general phosphatase assay using para-nitrophenylphosphate was applied.

The next assay addresses 11beta-HSD1 (Homo sapiens, UniProt P28845). Nature of the assay: biochemical. The note with it: read-out: IC50 Target 11beta-HSD1. The source says: (§2) Assay protocols for Cdc25A, 11βHSD1, 11βHSD2, and AChE are described in detain in the publication of Koch M A, Wittenberg L O, Basu S, Jeyaraj D A, Gourzoulidou E, Reinecke K, Odermatt A, Waldmann H (Proc. Natl. Acad. Sci. U.S.A. 2004 Nov. 30; 101(48):16721-6) and in Koch M A et al., Proc. Natl. Acad. Sci. U.S.A. 2005 Nov. 29; 102 (48):17272-7.

For the next assay, the target named is T1, Cdc25A (Homo sapiens, UniProt P30304).
T1 sequence (P30304 1-524): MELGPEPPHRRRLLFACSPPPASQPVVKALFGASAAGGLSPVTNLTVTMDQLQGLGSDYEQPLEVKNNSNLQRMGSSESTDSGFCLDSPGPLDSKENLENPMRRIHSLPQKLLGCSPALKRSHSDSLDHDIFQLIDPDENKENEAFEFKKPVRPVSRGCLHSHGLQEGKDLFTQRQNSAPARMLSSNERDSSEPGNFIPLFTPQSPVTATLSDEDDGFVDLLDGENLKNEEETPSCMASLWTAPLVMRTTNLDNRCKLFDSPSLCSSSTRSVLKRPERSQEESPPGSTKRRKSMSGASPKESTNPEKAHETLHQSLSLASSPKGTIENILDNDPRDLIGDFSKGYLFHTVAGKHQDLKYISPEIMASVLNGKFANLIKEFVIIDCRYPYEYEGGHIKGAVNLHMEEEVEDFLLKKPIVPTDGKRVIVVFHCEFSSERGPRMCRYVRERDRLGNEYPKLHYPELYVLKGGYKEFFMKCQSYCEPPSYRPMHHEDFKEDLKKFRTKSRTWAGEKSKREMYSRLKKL
Nature of the assay: Cdc25A phosphatase inhibition. It counts as biochemical. The settings on record: read-out: IC50 Target Cdc25A.
From the text: as §2

Another assay deals with MPTPA (Mycobacterium tuberculosis, UniProt P9WIA1). Nature of the assay: MtPTPA phosphatase inhibition, general phosphatase assay using para-nitrophenylphosphate. It counts as biochemical.
From the text: as §1

Another assay deals with T2, PTP1B (Homo sapiens, UniProt P18031).
T2 sequence (P18031 1-435): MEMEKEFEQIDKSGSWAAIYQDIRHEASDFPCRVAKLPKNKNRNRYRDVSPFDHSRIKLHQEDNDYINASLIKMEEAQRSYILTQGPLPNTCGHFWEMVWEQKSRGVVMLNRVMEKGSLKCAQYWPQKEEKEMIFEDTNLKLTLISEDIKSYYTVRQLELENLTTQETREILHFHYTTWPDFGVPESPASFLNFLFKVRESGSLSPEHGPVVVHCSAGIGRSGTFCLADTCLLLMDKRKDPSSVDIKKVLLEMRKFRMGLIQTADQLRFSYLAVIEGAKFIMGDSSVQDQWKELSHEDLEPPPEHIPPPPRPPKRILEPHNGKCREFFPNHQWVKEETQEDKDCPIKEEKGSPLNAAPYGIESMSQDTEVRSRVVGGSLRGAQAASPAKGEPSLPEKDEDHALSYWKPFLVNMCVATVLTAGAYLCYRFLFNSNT
Nature of the assay: PTP1B phosphatase inhibition, general phosphatase assay using para-nitrophenylphosphate. The note with it: read-out: IC50 Target PTP1B. It counts as biochemical.
From the text: as §1

The target of another assay is PP1. Nature of the assay: PP1 phosphatase inhibition, general phosphatase assay using para-nitrophenylphosphate. It counts as biochemical. The note with it: read-out: IC50 Target PP1.
From the text: as §1

Sequence of 11beta-HSD1 (P28845 whole entry): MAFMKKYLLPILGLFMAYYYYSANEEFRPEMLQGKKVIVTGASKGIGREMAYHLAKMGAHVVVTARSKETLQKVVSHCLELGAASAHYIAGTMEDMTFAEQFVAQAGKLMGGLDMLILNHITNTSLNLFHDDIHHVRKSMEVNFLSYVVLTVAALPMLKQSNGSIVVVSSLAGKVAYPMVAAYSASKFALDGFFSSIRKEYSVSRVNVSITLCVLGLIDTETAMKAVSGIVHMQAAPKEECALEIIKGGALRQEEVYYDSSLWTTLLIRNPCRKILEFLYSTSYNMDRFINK
Sequence of VHR (P51452 whole entry, species assumed): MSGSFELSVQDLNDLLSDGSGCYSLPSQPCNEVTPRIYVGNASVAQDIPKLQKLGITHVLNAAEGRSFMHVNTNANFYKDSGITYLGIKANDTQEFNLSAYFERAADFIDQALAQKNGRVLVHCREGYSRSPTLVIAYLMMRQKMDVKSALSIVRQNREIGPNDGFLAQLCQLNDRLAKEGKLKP
Sequence of MPTPA (P9WIA1 whole entry): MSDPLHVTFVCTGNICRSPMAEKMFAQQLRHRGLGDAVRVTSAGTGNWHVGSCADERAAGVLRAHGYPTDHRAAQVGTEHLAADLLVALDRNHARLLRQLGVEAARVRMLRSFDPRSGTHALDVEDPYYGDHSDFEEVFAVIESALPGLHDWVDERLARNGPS

Broadly, the IC50 is the concentration at which inhibition is half-maximal. On to `CC1=C2CCC[C@H](O)[C@@]2(C)C/C(=C\c2ccc(F)c(F)c2)C1=O` [Compound 1, (3E,4aS,5S)-3-(3,4-Difluorbenzyliden)-4,4a,5,6,7,8-hexahydro-5-hydroxy-1,4a-dimethyl-naphthalen-2(3H)-one], for which the values for the IC50 on VHR and on 11beta-HSD1 were 10 to 50 µM and under 10 µM, respectively.
Turning to `COc1ccc(/C=C2\C[C@@]3(C)C(=C(C)C2=O)CCC[C@@H]3O)cc1` [Compound 24, (3E,4aS,5S)-3-(4-Methoxybenzyliden)-4,4a,5,6,7,8-hexahydro-5-hydroxy-1,4a-dimethylnaphthalen-2(3H)-on], the IC50 is 10 to 50 µM on VHR; 10 to 50 µM on Cdc25A; 10 to 50 µM against MPTPA; 10 to 50 µM on PTP1B; under 10 µM on 11beta-HSD1.
As to `CC1=C2CCC[C@H](O)[C@@]2(C)C/C(=C\c2ccc(C#CCCO)cc2)C1=O` [Compound 55, (3E,4aS,5S)-3-[4-(4-Hydroxybut-1-inyl)benzyliden]-4,4a,5,6,7,8-hexahydro-5-hydroxy-1,4a-dimethylnaphthalen-2(3H)-one], the IC50 at VHR was 10 to 50 µM; at Cdc25A, under 10 µM; on MPTPA, 10 to 50 µM; on PTP1B, 10 to 50 µM.
As to `C=C(C)C#Cc1ccc(/C=C2\C[C@@]3(C)C(=C(C)C2=O)CCC[C@@H]3O)cc1` [Compound 56, (3E,4aS,5S)-3-[4-(3-Methylbut-3-en-1-inyl)benzyliden]-4,4a,5,6,7,8-hexahydro-5-hydroxy-1,4a-dimethylnaphthalen-2(3H)-on], the IC50 on VHR, against MPTPA and at PTP1B was 10 to 50 µM in each case.
For `C=C1C(C)=C2CCC[C@H](O)[C@@]2(C)C/C1=C\c1ccccc1` [Compound 97, (1S,7E,8aS)-7-Benzyliden-1,2,3,4,6,7,8,8a-octahydro-5,8a-dimethyl-6-methylennaphthalen-1-ol], the IC50 on 11beta-HSD1 was under 10 µM.
For the molecule `C=C1C(C)=C2CCC[C@H](O)[C@@]2(C)C/C1=C\CCCC` [Compound 98, (1S,7E,8aS)-1,2,3,4,6,7,8,8a-Octahydro-5,8a-dimethyl-6-methylen-7-pentylidennaphthalen-1-ol], on 11beta-HSD1, the IC50 is under 10 µM.
On to `CCCCCCC#Cc1ccc(/C=C2\C[C@@]3(C)C(CCC[C@@H]3O)C(C)C2=O)cc1` (stereo partly drawn) [Compound 125, (E,4aS,5S)-3-[4-(Oct-1-inyl)-benzyliden]-octahydro-5-hydroxy-1,4a-dimethylnaphthalen-2(1H)-one], for which the IC50 on VHR and on MPTPA (read-out: IC50 Target MPTPA) was 10 to 50 µM each time.
On to `CCCCCCCCCCCCCCC#Cc1ccc(/C=C2\C[C@@]3(C)C(CCC[C@@H]3O)C(C)C2=O)cc1` (stereo partly drawn) [Compound 127, (E,4aS,5S)-3-[4-(Hexadec-1-inyl)benzyliden]-octahydro-5-hydroxy-1,4a-dimethylnaphthalen-2(1H)-one], for which the IC50 on VHR and at MPTPA (read-out: IC50 Target MPTPA) was 10 to 50 µM each time.
Regarding `CCCCCCCCCCCCCCC#Cc1ccc(/C=C2\C[C@@]3(Cc4ccccc4)C(=C(C)C2=O)CCC[C@@H]3O)cc1` [Compound 128, (3E,4aS,5S)-3-[4-(Hexadec-1-inyl)benzyliden]-4a-benzyl-4,4a,5,6,7,8-hexahydro-5-hydroxy-1-methylnaphthalen-2(3H)-one], the IC50 at VHR and on MPTPA (read-out: IC50 Target MPTPA) was 10 to 50 µM each time.
Consider `CCCC#Cc1ccc(/C=C2\C[C@@]3(Cc4ccccc4)C(=C(C)C2=O)CCC[C@@H]3O)cc1` [Compound 130, (3E,4aS,5S)-3-[4-(Pent-1-inyl)benzyliden]-4a-benzyl-4,4a,5,6,7,8-hexahydro-5-hydroxy-1-methylnaphthalen-2(3H)-one], for which the IC50 at VHR and at MPTPA (read-out: IC50 Target MPTPA) was 10 to 50 µM each time.
Turning to `CCCCCCCCCC#Cc1ccc(/C=C2\C[C@@]3(C)C(CCC[C@@H]3O)C(C)C2=O)cc1` (stereo partly drawn) [Compound 131, (E,4aS,5S)-3-[4-(Undec-1-inyl)benzyliden]-octahydro-5-hydroxy-1,4a-dimethylnaphthalen-2(1H)-one], the IC50 at VHR and on MPTPA (read-out: IC50 Target MPTPA) was 10 to 50 µM throughout.
For the molecule `CCCCCCCCCCCCC#Cc1ccc(/C=C2\C[C@@]3(C)C(CCC[C@@H]3O)C(C)C2=O)cc1` (stereo partly drawn) [Compound 133, (E,4aS,5S)-3-[4-(Tetradec-1-inyl)benzyliden]-octahydro-5-hydroxy-1,4a-dimethylnaphthalen-2(1H)-one], the IC50 on VHR and on MPTPA (read-out: IC50 Target MPTPA) was 10 to 50 µM each time.
On to `CCCCCCCCCCCCC#Cc1ccc(/C=C2\C[C@@]3(Cc4ccccc4)C(=C(C)C2=O)CCC[C@@H]3O)cc1` [Compound 134, (3E,4aS,5S)-3-[4-(Tetradec-1-inyl)benzyliden]-4a-benzyl-4,4a,5,6,7,8-hexahydro-5-hydroxy-1-methylnaphthalen-2(3H)-one], for which the IC50 at VHR and at MPTPA (read-out: IC50 Target MPTPA) was 10 to 50 µM in each case.
Turning to `CC1=C(/C=C2\C[C@@]3(C)C(CCC[C@@H]3O)C(C)C2=O)NCC1` (stereo partly drawn) [Compound 158, (3E,4aS,5S)-Octahydro-3-[(4,5-dihydro-3-methyl-1H-pyrrol-2-yl)methylen]-5-hydroxy-1,4a-dimethylnaphthalen-2(1H)-one], the IC50 on VHR, on MPTPA (read-out: IC50 Target MPTPA) and on PTP1B was 10 to 50 µM each time.
`CCN(CC)C1CC[C@@]2(C)C(=C1C)CCC[C@@H]2O` (stereo partly drawn) [Compound 388, (1S,8aS)-6-(Diethylamino)-1,2,3,4,6,7,8,8a-octahydro-5,8a-dimethylnaphthalen-1-ol]: the IC50 on MPTPA (read-out: IC50 Target MPTPA) was in the range of 10 to 50 µM.
As for `CC1=C2CCC[C@H](O)[C@@]2(C)CC(=Cc2ccc(C#CCN(C)C)cc2)C1=O` [Compound 396, (4aS,5S)-3-[4-(3-Dimethylamino-prop-1-ynyl)-benzylidene]-5-hydroxy-1,4a-dimethyl-4,4a,5,6,7,8-hexahydro-3H-naphthalen-2-one], the IC50 at VHR, against MPTPA and at PTP1B was 10 to 50 µM throughout.
Consider `CC1=C2CCC[C@H](O)[C@@]2(C)CC(=Cc2ccc(NC3CCCCC3)cc2)C1=O` [Compound 399, (4aS,5S)-3-(4-Cyclohexylamino-benzylidene)-5-hydroxy-1,4a-dimethyl-4,4a,5,6,7,8-hexahydro-3H-naphthalen-2-one], for which the IC50 at 11beta-HSD1 was under 10 µM.
On to `CC1C=CCC2CCCC(=O)C12` (stereo not drawn) [Compound 407, 8-Methyl-3,4,4a,5,8,8a-hexahydro-2H-naphthalen-1-one], for which the IC50 on 11beta-HSD1 is under 10 µM.
`C/C=C1\CC[C@@]2(C)C(=C1C)CCC[C@@H]2O` [Compound 411, (2E,4aS,5S)-6-Ethylidene-5,8a-dimethyl-1,2,3,4,6,7,8,8a-octahydro-naphthalen-1-ol]: at PP1, the IC50 fell in the range of 10 to 50 µM.
Regarding `CCC(c1ccc(I)cc1)C1C[C@@]2(C)C(=C(C)C1=O)CCC[C@@H]2O` (stereo partly drawn) [Compound 412, (4aS,5S)-5-Hydroxy-3-[1-(4-iodo-phenyl)-propyl]-1,4a-dimethyl-4,4a,5,6,7,8-hexahydro-3H-naphthalen-2-one], the IC50 on VHR, at MPTPA (read-out: IC50 Target MPTPA) and at PTP1B was 10 to 50 µM each time.
Take `CC1=C2CCC[C@H](O)[C@@]2(C)CCC1=O` [Compound 413, (4aS,5S)-5-Hydroxy-1,4a-dimethyl-4,4a,5,6,7,8-hexahydro-3H-naphthalen-2-one]: the IC50 at VHR, on MPTPA (read-out: IC50 Target MPTPA) and on PTP1B was 10 to 50 µM in each case.
As for `CC1(Cc2cc(Br)cc(Br)c2)C(=O)/C(=C/c2ccc(I)cc2)CC2(C)C1CCCC21OCCO1` (stereo not drawn) [Compound 416, (7′E)-5′-(3,5-Dibromobenzyl)-7′-(4-iodo-benzylidene)-5′,8a′-dimethylhexahydro-2′H-spiro[1,3-dioxolane-2,1′-naphthalen]-6′(5′H)-one], the IC50 on PTP1B was 10 to 50 µM; on 11beta-HSD1 it was under 10 µM.
